Experimental data from ChEMBL document CHEMBL3430912, “GSK Tres Cantos Anti-Kinetoplastid Screening (TCAKS) Data”.

What was measured:
[1] = target: Sterol 14-alpha demethylase (Trypanosoma cruzi (strain CL Brener), UniProt Q7Z1V1); experiment: GSK_TCAKS: pIC50 CYP51 from Trypanosoma cruzi.; assay type: functional
Trypanosoma cruzi [2] = experiment: (§1) GSK_TCAKS: pIC50 Trypanosoma cruzi Imaging: Infected Cells. […] Cells were then washed once with PBS before infection. T. cruzi trypomastigotes, collected at days 5 to 8 after infection from LLC-MK2 parasite infected cultures, were allowed to swim out for 4h at 37C from a centrifuged pellet (2,500 rpm/10 min/room temperature). Trypomastigotes were then collected and counted in a CASY Cell Counter. Trypomastigotes, in supplemented DMEM, were added to H9c2 cultures in a multiplicity of infection of 1 and incubated for 18 h. Cells were washed once with PBS before incubation of the infected H9c2 monolayer with trypsin (Life-Technologies) to detach cells from the flask. Cells were counted in a CASY Cell Counter using a 150 um capillary and their density set at 5 * 10^4 cells per mL in supplemented assay DMEM. Infected H9c2 were dispensed into 384-well poly-lysine coated assay plates at 50uL per well using a Multidrop Combi dispenser. After seeding them, the plates were incubated at 37C, 5% CO2 for 72h. Cultures were then fixed and stained by addition of 50 uL of a solution containing 8% formaldehyde and 4 uM DRAQ5 DNA dye (BioStatus, UK) per well. […] Five images were collected per well for reliable statistical analysis. Automated image analysis was performed with a script developed on Acapella High Content Imaging and Analysis Software (PerkinElmer). Output: percentage of infected cells per well as a second infection marker.; assay type: functional, organism-based, Rattus norvegicus; settings: H9c2, 4 h
Leishmania donovani [3] = experiment: (§2) GSK_TCAKS: pIC50 Leishmania donovani Imaging: Infected Macrophages. Assay plates (384-well) were prepared by adding 250nL of compound to each well. For single shot assay, the final compound concentration was 5 uM. […] Automated image analysis was performed with a script developed on Acapella High Content Imaging and Analysis Software (PerkinElmer). Output: Percent of infected macrophage cells were reported for each well.; assay type: functional, organism-based, Homo sapiens; settings: THP-1
Trypanosoma cruzi [4] = experiment: as §1, with “H2C9” for “Trypanosoma cruzi”, “H9c2 Host Cardiomyocytes.” for “Infected Cells.”, “Number” for “percentage”, “H9c2 Host Cardiomyocytes nuclei to determine drug-related cytotoxicity.” for “infected cells per well as a second infection marker.”; assay type: functional, organism-based, Rattus norvegicus; settings: H9c2, 4 h
Leishmania donovani [5] = experiment: GSK_TCAKS: pIC50 Leishmania donovani viability assay using fluorescence intensity. Assay plates (1536-well) were prepared by adding 30nL per well of compound. For single shot assay, the final compound concentration was 5uM. […] Briefly, eGFP LdBOB axenic amastigotes were harvested, fixed and counted in a CASY cell counter (Roche-Applied Science). A final concentration of 1.5 * 10^5 cells per well were prepared in amastigote media containing 500 U/mL penicillin/streptomycin (Invitrogen) and 6uL was dispensed to each experimental well using a Multidrop Combi dispenser (Thermo Scientific). 6uL of assay media was dispensed to control columns used as reference for 100% compound response. Following incubation for 72 h at 37C, 5% CO2, 2 uL of resazurin was added to each well at a final concentration of 0.5 mM in phosphate buffered saline (PBS) with IGEPAL (Sigma-Aldrich), 0.05% (v/v).; assay type: functional, organism-based
Leishmania donovani [6] = experiment: as §2, with “THP-1 Host” for “Infected”, “THP-1 cell count” for “Percent of infected macrophage cells”; assay type: functional, organism-based, Homo sapiens
Leishmania donovani [7] = experiment: as §2, with “Amastigotes/Macrophages.” for “Infected Macrophages.”, “Average number” for “Percent”, “amastigotes per” for “infected”, “cell” for “cells”; assay type: functional, organism-based, Homo sapiens; settings: THP-1
Trypanosoma cruzi [8] = experiment: GSK_TCAKS: pIC50 Trypanosoma cruzi Imaging: Amastigotes/Cell. […] Cells were then washed once with PBS before infection. T. cruzi trypomastigotes, collected at days 5 to 8 after infection from LLC-MK2 parasite infected cultures, were allowed to swim out for 4h at 37C from a centrifuged pellet (2,500 rpm/10 min/room temperature). Trypomastigotes were then collected and counted in a CASY Cell Counter. Trypomastigotes, in supplemented DMEM, were added to H9c2 cultures in a multiplicity of infection of 1 and incubated for 18 h. Cells were washed once with PBS before incubation of the infected H9c2 monolayer with trypsin (Life-Technologies) to detach cells from the flask. Cells were counted in a CASY Cell Counter using a 150 um capillary and their density set at 5 * 10^4 cells per mL in supplemented assay DMEM. Infected H9c2 were dispensed into 384-well poly-lysine coated assay plates at 50uL per well using a Multidrop Combi dispenser. After seeding them, the plates were incubated at 37C, 5% CO2 for 72h. Cultures were then fixed and stained by addition of 50 uL of a solution containing 8% formaldehyde and 4 uM DRAQ5 DNA dye (BioStatus, UK) per well. […] Five images were collected per well for reliable statistical analysis. Automated image analysis was performed with a script developed on Acapella High Content Imaging and Analysis Software (PerkinElmer). Output: number of amastigotes per cell as infection level measurement.; assay type: functional, organism-based, Rattus norvegicus; settings: H9c2, 4 h
[9] = tested on: Trypanosoma brucei brucei; experiment: GSK_TCAKS: pIC50 Trypanosoma brucei viability assay using fluorescence intensity. Assay plates (1536-well) were prepared by dispensing 25nL of compound solution per well using an Echo acoustic dispenser (Labcyte).; assay type: functional, organism-based; settings: Lister 427, 2 h
[10] = tested on: Trypanosoma brucei brucei; experiment: GSK_TCAKS: pIC50 Trypanosoma brucei viability assay using luminiscence. Assay plates (1536-well) were prepared. T. brucei cultures were harvested and counted in a CASY cell counter. A parasite suspension was prepared at a final concentration of 5 * 10^4 cells/mL in complete HMI9 medium and 6uL was dispensed to all wells containing compounds using a Multidrop Combi dispenser. 6uL of HMI9 media with 0.4% DMSO were dispensed to control columns. Plates were incubated for 24 h at 37C, 5% CO2 then tempered for 10 min at room temperature. ATP content was quantified by adding 4 uL of CellTiter-Glo Reagent (Promega) according to the manufacturer's instructions. Luminescence was measured using a ViewLux.; assay type: functional, organism-based; settings: Lister 427, CASY
Trypanosoma cruzi [11] = experiment: GSK_TCAKS: pIC50 Trypanosoma cruzi viability assay using beta-GAL activity. This assay was run at single shot at 5uM compound concentration per well. The biological reagents consisted of NIH-3T3 host cells and trypomastigotes parasitic cells; both cell types were set to a 3.3 * 10^5 cells/mL dilution in assay DMEM by means of a CASY cell counter device using a 60um capillary. 6 uL of the mixture were dispensed per well (about 1 * 10^3 host-cells and 1 * 10^3 parasites) with a Multidrop Combi dispenser. […] In all wells, the percentage of DMSO never exceeded 0.5%. Plates incubated for four days at 37C, 5% CO2. The substrate used for the assay fluorescence intensity (FLINT) readout was resorufin-beta-D-galactopiranoside (Sigma-Aldrich) at 5uM per well. It was diluted in PBS supplemented with the soft detergent Igepal (Fluka).; assay type: functional, organism-based, Mus musculus; settings: Tulahuen, NIH3T3
[12] = GSK_TCAKS: pIC50 HepG2 human cell line viability assay using luminiscence. […] Seeding density was checked to ensure that new mono-layers were not more than 50% confluent at the time of harvesting. Cell suspension was added to 500 mL of the same medium at a final density of 1.2 * 10^5 cells/mL. This cell suspension was dispensed (25 uL, 3000 cells per well) into 384-well clear-bottom plates using a Multidrop Combi dispenser. Prior to addition of the cell suspension, the screening compounds (250 nL) were pre-dispensed into the plates with an Echo liquid handler. Plates were incubated for 48 h at 37C, 5% CO2. After incubation, plates equilibrated at room temperature for 30 min before proceeding to develop the luminescent signal. The signal developer, CellTiter-Glo Reagent, was allowed to equilibrate at room temperature for 30 min and added to the plates (25uL per well) using a Multidrop Combi dispenser. Plates were left for 10 min at room temperature for stabilization and then read using a ViewLux.; assay type: toxicity, cell-based

Sterol 14-alpha demethylase, sequence (Q7Z1V1 whole entry): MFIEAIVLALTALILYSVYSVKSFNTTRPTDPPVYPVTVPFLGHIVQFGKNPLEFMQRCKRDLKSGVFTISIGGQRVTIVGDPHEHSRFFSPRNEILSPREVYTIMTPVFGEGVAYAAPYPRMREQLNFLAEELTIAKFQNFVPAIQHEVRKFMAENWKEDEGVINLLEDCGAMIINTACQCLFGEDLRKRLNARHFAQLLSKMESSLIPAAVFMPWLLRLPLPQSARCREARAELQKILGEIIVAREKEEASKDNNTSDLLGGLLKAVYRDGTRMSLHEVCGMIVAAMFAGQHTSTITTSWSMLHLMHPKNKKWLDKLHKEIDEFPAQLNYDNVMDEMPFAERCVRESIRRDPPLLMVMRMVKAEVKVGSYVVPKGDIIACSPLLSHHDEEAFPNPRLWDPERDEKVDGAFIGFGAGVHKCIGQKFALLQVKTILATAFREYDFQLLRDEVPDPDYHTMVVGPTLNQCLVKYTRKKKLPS

| SMILES | IC50 [1] [µM] | IC50 (Trypanosoma cruzi [2]) [µM] | IC50 (Leishmania donovani [3]) [µM] | IC50 (Trypanosoma cruzi [4]) [µM] | IC50 (Leishmania donovani [5]) [µM] | IC50 (Leishmania donovani [6]) [µM] | IC50 (Leishmania donovani [7]) [µM] | IC50 (Trypanosoma cruzi [8]) [µM] | IC50 [9] [µM] | IC50 [10] [µM] | IC50 (Trypanosoma cruzi [11]) [µM] | IC50 at 48 h [12] [µM] |
| --- | --- | --- | --- | --- | --- | --- | --- | --- | --- | --- | --- | --- |
| CCCn1c(NC(=O)CCn2cc(Br)cn2)nc2ccccc21 | 10 | 6.31 | 10 | 25.1 | 10 | > 50.1 | 5.01 | 2.51 | 7.94 | 7.94 | 5.01 | > 100 |
| CCn1c(NC(=O)Cc2ccc(F)cc2)nc2ccccc21 | 25.1 | 7.94 | 10 | > 50.1 | 10 | > 50.1 | 6.31 | 3.98 | 3.16 | 5.01 | 5.01 | > 100 |
| N#Cc1cc(-c2ccnc(Nc3cccc(CN4CCOCC4)c3)n2)ccc1NCCN | 31.6 | 31.6 | 1.58 | 7.94 | 3.98 | 7.94 | 0.794 | 15.8 | 0.398 | 1.26 | 7.94 | 50.1 |
| CN(C)Cc1cccc(Nc2nccc(-c3ccc(NCCN)c(C#N)c3)n2)c1 | 6.31 | 10 | 1.26 | 2 | 2.51 | 6.31 | 0.501 | 1.58 | 0.0501 | 0.2 | 1 | 25.1 |
| O=C(CC1(O)C(=O)N(Cc2cccs2)c2ccc(Br)cc21)c1cccnc1 (centres undefined) | 12.6 | 39.8 | > 50.1 | 3.98 | > 50.1 | 20 | > 50.1 | 25.1 | 0.631 | 0.794 | 5.01 | 63.1 |
| COc1cnc2ccc(=O)n(CCN3CCC(NC/C=C/c4cc(F)ccc4F)CC3)c2c1 | 15.8 | 0.02 | 5.01 | 15.8 | 5.01 | 39.8 | 2 | 0.01 | 0.398 | 0.794 | 0.0158 | 63.1 |
| Cc1cc2cc(CNc3ccc4c(c3)OCO4)c(=O)n(CCO)c2cc1C | 10 | 0.251 | 0.501 | > 50.1 | 6.31 | 39.8 | 0.251 | 0.2 | 25.1 | > 39.8 | 0.631 | > 100 |
| Cc1nn2c(=O)c3c([nH]c2c1-c1ccc(Br)cc1)CCCC3 | > 100 | 1.58 | > 50.1 | > 50.1 | 10 | > 50.1 | 39.8 | 0.794 | 0.398 | 0.794 | 1 | > 100 |
| COc1ccc(C(=O)NC2CCN(CCn3c(=O)ccc4ncc(F)cc43)CC2)cc1Cl | 15.8 | 0.631 | > 50.1 | > 50.1 | 3.98 | > 50.1 | 15.8 | 0.316 | 0.126 | 0.251 | 0.501 | > 100 |
| c1ccc2[nH]c(-c3ccc(N4CCCC4)nc3)nc2c1 | > 100 | 1.58 | > 50.1 | > 50.1 | 5.01 | 31.6 | > 50.1 | 1 | 0.794 | 1 | 1 | > 100 |
| CC(c1ccc2c(c1)CCCC2)N(C)c1ncc2c(N)nc(N)nc2n1 (centres undefined) | 25.1 | 0.0316 | 2 | 10 | 2.51 | 25.1 | 0.794 | 0.01 | 15.8 | 12.6 | 0.0316 | 50.1 |
| CC(c1cc(Cl)cc(Cl)c1)N(C)c1ncc2c(N)nc(N)nc2n1 (centres undefined) | 39.8 | 0.002 | 0.794 | 7.94 | 0.794 | 31.6 | 0.251 | 0.001 | > 39.8 | 31.6 | 0.0631 | 63.1 |
| COc1ccnc2[nH]cc(-c3cc(C(=O)N[C@H](CO)c4ccccc4)co3)c12 | 0.794 | 20 | 7.94 | 0.316 | 25.1 | 0.794 | 2 | 7.94 | 0.00501 | 0.0126 | 1.26 | 15.8 |
| COc1ccc(-c2cnc(NC(=O)c3cc(-c4ccccn4)n[nH]3)n2C)cc1 | 15.8 | 5.01 | 1 | > 50.1 | 3.98 | > 50.1 | 0.794 | 3.98 | 0.398 | 10 | 3.55 | > 100 |
| CCCc1cc(C(=O)Nc2ncc(-c3cccc(Br)c3)n2C)[nH]n1 | 25.1 | 3.98 | 5.01 | > 50.1 | 6.31 | 31.6 | 3.98 | 2.51 | 2.51 | 1.26 | 2.51 | > 100 |
| Cc1nn2c(NCCCO)c3c(nc2c1-c1cccs1)CCC3 | 25.1 | 50.1 | > 50.1 | > 50.1 | 2 | > 50.1 | > 50.1 | 5.01 | 0.316 | 0.398 | 15.8 | > 100 |
| CC(C)S(=O)(=O)c1ccc(-c2cnc(N)c3cc(-c4ccnc(N)n4)ccc23)cc1 | 15.8 | 39.8 | 1.26 | 0.501 | 2 | 2.51 | 0.501 | 12.6 | 0.2 | 0.251 | 0.794 | 15.8 |
